Assay results: US6294565A, “Methods of combatting infectious diseases using dicationic bis-benzimidazoles” (University of North Carolina at Chapel Hill, priority 2000, dated 2001)
Converted amounts (≈) assume the structure as drawn.

Columns and labels:
[1] = test system: L1210 cells; assay: in vitro cytotoxicity, 3H-thymidine incorporation in L1210 cells; format: cell-based; conditions: Mus musculus, 48 hours, 6 replicates
Source text: Source: L1210 cells were obtained from the American Type Culture Collection (ATCC#CCL219). This line is a mouse lymphocytic leukemia line first described by E. Law et al., J. Natl. Cancer Inst. 10, 179-192 (1949) as a tumor arising in a mouse following skin paintings with 0.2% methycholanthrene. The first report of suspension culture was reported by G. Moore et al. J. Natl. Cancer Inst. 36, 405-421 (1966). This line has been used extensively for routine screening programs of chemical agents and natural products for cytotoxic activity and is also utilized in preliminary testing for antitumor activity by the NCI in cancer chemotherapy screening studies.
The in vitro cytotoxicity studies were performed essentially as described by Denizot and Lang, "Rapid calorimetric assay for cell growth and survival: Modification of tetrazolium dye procedure giving improved sensitivity and reliability", J. Immunological Methods 89, 271 (1986), but with the following modifications. Since many of the drugs had color interference, the viability of the cells was determined with a ^3 H-thymidine incorporation method. L1210 cells in DMEM +10% fetal calf serum were plated at 2.0×10^4 cells/well. An equal volume of test compound was added to each well diluted to 2× the final concentration in the above medium. Final drug concentrations ranged from 0.05 to 50 μM. After 24 hours at 37° C., 2.5 μCi of ^3 H-Thymidine (5 Ci/mmol) was added to each well. At 48 hours, the cells were harvested onto glass filters and radioactivity was measured with a scintillation counter.
The IC50 value was determined as the concentration leading to a 50% reduction of ^3 H-thymidine incorporation relative to control wells. Each value shown in Table 1, above, resulted from 6 replicates for each compound.

[2] = test system: S. cerevisiae; assay: S. cerevisiae IC50 (Table I); format: cell-based; conditions: Saccharomyces cerevisiae
[3] = test system: C. albicans; assay: standard in vitro fungal cell growth inhibition assay (broth dilution, M27-P), minimum fungicidal concentration; format: cell-based; conditions: Candida albicans, A39 clinical isolate, RPMI media, inoculum 10^4 cells, less than 0.01% survival of original inoculum
Method: (§1) Activity of the compounds were assessed using a standard in vitro fungal cell growth inhibition assay (the broth dilution antifungal susceptibility testing of yeast, proposed standard document M27-P, validated by the National Committee for Clinical Laboratory Standards, 1992). Briefly, this broth dilution procedure uses RPMI media, and an inoculum of 10^4 cells. Control tubes contained media alone. After the minimal inhibitor concentration was determined by the above procedure, tubes with no visible growth were subcultured to determine the minimum fungicidal concentration by using criteria of less than 0.01% survival of original inoculum. Two organisms were tested: (1) H99, a clinical isolate of C. neoformans which is fully susceptible to azoles and polyenes in vitro and in vivo; and (2) A39, a clinical isolate of C. albicans which is fully susceptible to azoles and polyenes.
(§2) The MFC's (minimum fungicidal concentration) against these two important AIDS-associated fungal infections are shown in Table 1. MFCs were determined following the method of McGinnis.

[4] = test system: C. neoformans; assay: as above; format: cell-based; conditions: Cryptococcus neoformans, H99 clinical isolate, RPMI media, inoculum 10^4 cells, less than 0.01% survival of original inoculum
Method: as §1, §2

[5] = test system: Calf thymus DNA; assay: DNA binding by change in melting of the DNA bound to the compounds (ΔTm); conditions: 259 nm, 18° C./h heating; initial absorbance of 0.3A259
Method: DNA binding potency was determined for each of the compounds because previous work had determined that the binding of dicationic molecules to DNA is a prerequisite for their antimicrobial activity. See e.g., Tidwell, R. R., et al., Antimicrob. Agents Chemother. 37, 1713-1716 (1993); Bell, C. A., et al., Antimicrob. Agents Chemother. 35, 1099-1107 (1991). The DNA binding of the compounds was determined by the change in melting of the DNA bound to the compounds. The method is well documented and is a considered a standard method for determining DNA binding strength. See Cory, M. et al., J. Med. Chem. 25, 431-438 (1992). In brief, a UV-visible light spectrophotometer with a cuvette changer was interfaced to a microcomputer that recorded the cuvette temperature and DNA-absorbance data at 259 nm as the sample was heated at a rate of 18° C./h. Calf thymus DNA was used at an initial absorbance of 0.3A259. The midpoint of each denaturation curve was determined after graphic selection on the computer of the starting and ending absorbance temperature for each curve of each experiment. DNA or DNA bound to experimental compound was run in each experiment and the ΔTm s were determined from the polynucleotide TM for that experiment.

Compound	IC50 [2] [µM]	IC50 [1] [µM]	MFC [3] [µM]	MFC [4] [µM]	ΔTm DNA binding [5] [°C]
c1cc(-c2nc3cc(C4=NCCN4)ccc3[nH]2)nc(-c2nc3cc(C4=NCCN4)ccc3[nH]2)c1 [Compound 3, 2,6-bis[5-(2-imidazolinyl)-2-benzimidazolyl]pyridine]	10	1.26	2.6 (≈ 1.16 µg/mL)	5.2 (≈ 2.33 µg/mL)	–
c1cc(-c2nc3ccc(C4=NCCCN4)cc3[nH]2)nc(-c2nc3ccc(C4=NCCCN4)cc3[nH]2)c1 [Compound 8, 2,6-bis[5-(1,4,5,6-tetrahydro-2-pyrimidinyl)-2-benzimidazolyl]pyridine]	304	3	> 52	19 (≈ 9.05 µg/mL)	14.8
c1cc2[nH]c(-c3ccc(-c4nc5cc(C6=NCCN6)ccc5[nH]4)o3)nc2cc1C1=NCCN1 [Compound 10, 2,5-bis[5-(2-imidazolinyl)-2-benzimidazolyl]furan]	–	–	5.21 (≈ 2.27 µg/mL)	2.6 (≈ 1.13 µg/mL)	–
c1cc2[nH]c(-c3ccc(-c4nc5cc(C6=NCCN6)ccc5[nH]4)[nH]3)nc2cc1C1=NCCN1 [Compound 2, 2,5-bis-[5-(2-imidazolinyl)-2-benzimidazolyl]pyrrole]	< 1	1.07	26.8 (≈ 11.7 µg/mL)	107 (≈ 46.6 µg/mL)	–
N=C(N)c1ccc2nc(-c3ccc(-c4nc5ccc(C(=N)N)cc5[nH]4)o3)[nH]c2c1 [Compound 9, 2,5-bis(5-amidino-2-benzimidazolyl)furan]	–	–	6.44 (≈ 2.48 µg/mL)	1.61 (≈ 0.619 µg/mL)	–
Cn1c(-c2nc3cc(C4=NCCN4)ccc3[nH]2)ccc1-c1nc2cc(C3=NCCN3)ccc2[nH]1 [Compound 5]	> 100	1.51	5.09 (≈ 2.29 µg/mL)	2.54 (≈ 1.14 µg/mL)	22.5

Further lines, with some results ahead:

IC50 [2] [µM]	Compound	IC50 [1] [µM]	MFC [3] [µM]	MFC [4] [µM]	ΔTm DNA binding [5] [°C]
45	N=C(N)c1ccc2nc(-c3ccc(-c4nc5ccc(C(=N)N)cc5[nH]4)[nH]3)[nH]c2c1 [Compound 1, 2,5-bis(5-amidino-2-benzimidazolyl)pyrrole]	0.21	5.71 (≈ 2.19 µg/mL)	2.85 (≈ 1.09 µg/mL)	18.1
95	N=C(N)c1ccc2[nH]c(-c3cccc(-c4nc5cc(C(=N)N)ccc5[nH]4)n3)nc2c1 [Compound 7, 2,6-bis(5-amidino-2-benzimidazoyl)pyridine]	13.6	> 179	> 179	15.3
90	Cn1c(-c2nc3ccc(C(=N)N)cc3[nH]2)ccc1-c1nc2ccc(C(=N)N)cc2[nH]1 [Compound 4, 1-Methyl-2,5-bis(5-amidino-2-benzimidazolyl)pyrrole]	0.81	2.84 (≈ 1.13 µg/mL)	5.69 (≈ 2.26 µg/mL)	20.3
